Test results published in US10583130B2, “Pharmaceutical formulations compromising nitrocatechol derivatives and methods of making thereof” (BIAL—Portela & Cᵃ, S.A., priority 2009, dated 2020).

What was measured:
[1] = Bulk / apparent density (m/V0); format: physicochemical; conditions: prior to granulation and/or formulation
Excerpt: It is within the ability of one of skill in the art to determine the bulk density of a compound or composition using methods generally accepted in the art. However, suitable methods include, for example, the European Pharmacopeia edition 6, Test 2.9.15 “apparent volume,” pages 285-286, EDQM, 2007, and USP 31, vol. 1 test <616> page 231-232, The United States Pharmacopeia Convention, 2008. An example of a suitable method is described below:
Apparatus: • settling apparatus capable of producing in 1 minute 250±15 taps from a height of 3±0.2 mm. The support for the graduated cylinder with its holder, has a mass of 450±5 g • a 250 ml graduated cylinder (2 ml intervals) with a mass of 220±40 g
Method: Into a dry cylinder, introduce without compacting, 100.0 g (m g) of the test substance. Secure the cylinder in its holder. Read the unsettled apparent volume (V0) to the nearest milliliter. Carry out 10, 500 and 1250 taps and read the corresponding volumes V10, V500, V1250, to the nearest milliliter. If the difference between V500 and V1250 is greater than 2 ml, carry out another 1250 taps.
Alternatively, if it is not possible to select 100.0 g, select a test sample of any mass but with a volume between 50 ml and 250 ml, measure its apparent volume, V0 as described above, and weigh the sample and specify the mass in the expression of results. Bulk/apparent density may then be determined in g/ml using the following formula: m/V0 where m is the mass in grams and V0 the unsettled apparent volume.
(§1) The granules and final compositions were evaluated for bulk and tapped density using the methods described above. Flowability was also accessed by testing the flow rate through an orifice described in USP 31, vol. 1, test <1174>, The United States Pharmacopeia Convention, 2008. The flowability was measured as the mass per time flowing through the 10 mm diameter opening of a glass funnel.

[2] = Flowability: flow rate through 10 mm orifice of a glass funnel (USP <1174>); format: physicochemical; conditions: API before granulation
Excerpt: It is within the ability of one of skill in the art to determine the flowability of a compound or composition using methods generally accepted in the art. However, suitable methods include but are not limited to, testing the flow rate through an orifice described in USP 31, vol. 1, test <1174>, The United States Pharmacopeia Convention, 2008, in which case, the flowability may be measured as the mass per time flowing through the 10 mm diameter opening of a glass funnel.
as §1

bulk density of the API alone [1] | bulk density of the API alone ([1]; listed as 2,5-dichloro-3-(5-(3,4-dihydroxy-5-nitrophenyl)-1,2,4-oxadiazol-3-yl)-4,6-dimeth) | flow of the API alone [2] | SMILES
around 0.2 g/ml |  |  | Cc1nc(Cl)c(-c2noc(-c3cc(O)c(O)c([N+](=O)[O-])c3)n2)c(C)c1Cl [5-[3-(2,5-dichloro-4,6-dimethylpyridin-3-yl)-[1,2,4]oxadiazol-5-yl]-3-nitrobenzene-1,2-diol]
< 0.1 g/mL | less than 0.1 g/ml | no flow | Cc1c(Cl)c(C)[n+]([O-])c(Cl)c1-c1noc(-c2cc(O)c(O)c([N+](=O)[O-])c2)n1 [API, 2,5-dichloro-3-(5-(3,4-dihydroxy-5-nitrophenyl)-1,2,4-oxadiazol-3-yl)-4,6-dimethylpyridine 1-oxide]
